Measured values from article PMC9558510 (Cancers, 2022).

Legend:
[1] = Empirical Bayesian estimates of serum AUCτ and Cmin from serum samples with existing popPK models; conditions: steady state, 150 mg q12h dabrafenib
Experimental: For each compound, a popPK model developed by Balakirouchenane et al. was assessed regarding its suitability to create EBE using Monolix 2021R1 (Lixoft SAS, Antony, Fance). […] The predictive performance of the models was estimated by calculating the prediction error (PE), mean prediction error (MPE), mean absolute prediction error (MAPE), and mean relative deviation (MRD):(1) PEi[%]=Cpredicted,i−Cobserved,i/Cobserved,i·100 (2) MPE[%]=1/n∑i=1nPEi (3) MAPE[%]=1/n∑i=1n|PEi| (4) MRD=10^x;x=1/n∑i=1n(log10[Cpredicted,i]−log10[Cobserved,i])^2
Estimates for AUCτ were generated for every occasion for the standard doses (150 mg q12h for dabrafenib, 2 mg q24h for trametinib). In addition, the individual predicted Cmin at a steady state was generated since not all patients contributed trough samples. The same estimates were used in the logistic regression model.

[2] = Logistic regression of dose reduction/discontinuation vs predicted exposure; type: in vivo, human; conditions: logistic regression, standard dosing assumed
Experimental: (§1) Data were collected and processed using Microsoft Excel 2016 Version 16.0 (Microsoft Corporation, Redmond, WA, USA). Statistical calculations and visualization of results were performed with R Studio Version 1.2.5042 (RStudio Incorporation, Boston, MA, USA) running R version 4.0.5 (R Foundation for Statistical Computing, Vienna, Austria, 2020). For further analysis, serum concentrations were divided into groups according to time interval post-dose as follows: 0–5 h, 5–10 h, 10–14 h, and >14 h for (hydroxy-)dabrafenib and 0–10 h, 10–20 h, 20–30 h, and >30 h for trametinib. Concentrations < LLOQ were excluded from further statistical analyses. The concentrations of the same patient at the same dosage and within the same post-dose group were summarized into an individual mean serum concentration for descriptive statistical analysis to account for potential bias caused by the unbalanced number of samples per patient. […] The Wilcoxon […] test was used for unpaired samples. The correlations between individual PK parameters sampled from the conditional distribution during the generation of EBE (methods for estimation see below) and age, sex, body mass index (BMI), and co-medication were analyzed using analysis of variance (ANOVA) and Spearman’s correlation coefficient. Logistic regression was used to compare the risk of treatment discontinuations or dose reductions (dabrafenib dose reduction or discontinuation, trametinib dose reduction or discontinuation, or any dose reduction or discontinuation) with the corresponding predicted trough concentrations and area under the curve of a dosing interval (AUCτ) of dabrafenib, hydroxy-dabrafenib, and trametinib as well as with the composite predicted dabrafenib/hydroxy-dabrafenib trough concentration and with composite dabrafenib/hydroxy-dabrafenib AUCτ assuming standard dosing. The Hosmer–Lemeshow test was used to evaluate the goodness of fit for our logistic regression model. Due to the explorative nature of the study, p-values obtained from multiple comparisons were not corrected for multiple testing. A p-value < 0.05 was considered statistically significant.

[3] = Observed steady-state serum concentrations (LC-MS/MS) in melanoma patients; type: in vivo, human
Experimental: Serum samples were collected regularly during each routine outpatient visit from study enrollment until January 2022 or until treatment discontinuation. If possible, blood sampling was performed before the next drug administration, but any time interval between the last administration and blood withdrawal was accepted. The steady-state was assumed after continuous dosing for fourteen days for both compounds.
Hydroxy-dabrafenib concentrations were analyzed using a different previously published LC-MS/MS method with an LLOQ of 10 ng/mL [37]. […] Hydroxy-dabrafenib was not quantified in capillary blood samples as the methodology was not available at the time of analysis. All the methods have been validated according to the guidelines of the U.S. Food and Drug Administration and/or the European Medicines Agency.
as §1

[4] = serum, dabrafenib dose of 150 mg q12h
[5] = standard dose, BMI (kg/m2) < 30
[6] = standard dose, BMI (kg/m2) >= 30
[7] = standard dose, P-gp inducer: no
[8] = standard dose, P-gp inducer: yes
[9] = standard dose, P-gp inhibitor: no
[10] = standard dose, P-gp inhibitor: yes
[11] = standard dose, age above 65: no
[12] = standard dose, age above 65: yes
[13] = standard dose, moderate CYP2C8 inhibitor: no
[14] = standard dose, moderate CYP2C8 inhibitor: yes

For `CC(C)(CO)c1nc(-c2cccc(NS(=O)(=O)c3c(F)cccc3F)c2F)c(-c2ccnc(N)n2)s1` [hydroxy-dabrafenib], the “median of the average predicted trough concentrations” value [1] was 84.5 ng/mL, the “median of the average predicted AUCτ” value ([1]; average over all observations per patient) was 6040 ng·h/mL and the “relationship between dose reduction or discontinuation due to AE and predicted serum trough concentrations or AUCτ” value [2] was “no significant relationships”. The “median of individual mean trough concentration” value [3, 4] was 76.0 ng/mL, the “range of individual mean trough concentration” value [3, 4] was 37.2 to 171.0 ng/mL and the “effect of co-medication with at least one P-gp inducer on individual mean trough concentrations” value ([3]; serum, standard dose) was “no effect”. The “serum Cmin mean” value [3, 5] was 73.6 ng/mL, the “serum Cmin median” value [3, 5] was 72.9 ng/mL and the “serum Cmin mean” value [3, 6] was 97.6 ng/mL. For the same molecule, the “serum Cmin median” value [3, 6] was 68.3 ng/mL, the “serum Cmin mean” value [3, 7] was 101 ng/mL and the “serum Cmin median” value [3, 7] was 90.9 ng/mL. The “serum Cmin mean” value [3, 8] was 62.1 ng/mL, the “serum Cmin median” value [3, 8] was 56.6 ng/mL and the “serum Cmin mean” value [3, 9] was 100 ng/mL. The “serum Cmin median” value [3, 9] was 78 ng/mL, the “serum Cmin mean” value [3, 10] was 77.3 ng/mL and the “serum Cmin median” value [3, 10] was 70.2 ng/mL. The “serum Cmin mean” value ([3]; standard dose, PPI: no) was 93.1 ng/mL, the “serum Cmin median” value ([3]; standard dose, PPI: no) was 78 ng/mL and the “serum Cmin mean” value ([3]; standard dose, PPI: yes) was 53.7 ng/mL. The “serum Cmin median” value ([3]; standard dose, PPI: yes) was 53.7 ng/mL, the “serum Cmin mean” value [3, 11] was 92.7 ng/mL and the “serum Cmin median” value [3, 11] was 77.6 ng/mL. For the same molecule, the “serum Cmin mean” value [3, 12] was 66.2 ng/mL, the “serum Cmin median” value [3, 12] was 55.6 ng/mL and the “serum Cmin mean” value [3, 13] was 89.4 ng/mL. For the same molecule, the “serum Cmin median” value [3, 13] was 78 ng/mL, the “serum Cmin mean” value [3, 14] was 86.3 ng/mL and the “serum Cmin median” value [3, 14] was 76.6 ng/mL. The “serum Cmin mean” value ([3]; standard dose, sex female) was 86 ng/mL, the “serum Cmin median” value ([3]; standard dose, sex female) was 68.3 ng/mL and the “serum Cmin mean” value ([3]; standard dose, sex male) was 77.3 ng/mL. The “serum Cmin median” value ([3]; standard dose, sex male) was 72.9 ng/mL.
